Results reported in PubChem BioAssay AID236 (DTP/NCI, 2004).
“And” between values parts separate entries of the source, which are not always exact repeats. Identical values can stand only once. Inconclusive results and toxic doses are left out. How the source made its calls: active means survival T/C of 150% or more; inactive means T/C below 125% in these data.

System: AK4 lymphoid leukemia ip, C3AKF1 mice, survival
Assay: NCI In Vivo Anticancer Drug Screen. Data for tumor model AK4 Lymphoid Leukemia (intraperitoneal) in C3AKF1 (CHKRF1) mice
Details: endpoint: median survival time, schedule: Q01DX010 (ip), vehicle: saline, higher = longer survival
Method: The antitumor activity of compounds was measured in mice bearing transplantable tumors. Survival or tumor size were measured and the results are expressed as the measurement made in the treated group (T) divided by the measurement made in the vehicle treated control group (C). The tumor model used in this assay is AK4 Lymphoid Leukemia (intraperitoneal) in C3AKF1 (CHKRF1) mice

Measured: T/C

CS(=O)(=O)OCCCl
inactive: dose: 18.8 mg/kg/injection 100 % of control | dose: 37.5 mg/kg/injection 100 % of control | dose: 75.0 mg/kg/injection 100 % of control

C[C@@H]1C[C@@H]([C@H](O)CC2CC(=O)NC(=O)C2)C(=O)[C@@H](C)C1
inactive: dose: 5.0 mg/kg/injection 100 % of control and 107 % of control | dose: 10.0 mg/kg/injection 87 % of control and 121 % of control | dose: 20.0 mg/kg/injection 93 % of control and 114 % of control

CN(C)CC(=O)c1ccc(O)c(O)c1
inactive: dose: 200.0 mg/kg/injection 112 % of control | dose: 300.0 mg/kg/injection 100 % of control | dose: 450.0 mg/kg/injection 112 % of control | dose: 675.0 mg/kg/injection 118 % of control

N#[N+]c1cnc([O-])[nH]c1=O
inactive: dose: 1.25 mg/kg/injection 100 % of control | dose: 2.5 mg/kg/injection 100 % of control | dose: 5.0 mg/kg/injection 100 % of control | dose: 10.0 mg/kg/injection 100 % of control
